Data: patent US20190255042A1, “APPLICATION OF HEDGEHOG PATHWAY INHIBITOR IN TREATING FIBROSIS DISEASES” (IMPACT THERAPEUTICS, INC, priority 2016, published 2019)

Experiments:
[1] = system: unilateral pulmonary fibrosis model in SD rats; assay: Therapeutic efficacy in unilateral pulmonary fibrosis model in SD rats (bleomycin, dosing from D8); format: in vivo; set-up: Evaluation of injury and inflammatory lesions of left lung: Fibrotic lesion edge / Evaluation of injury and inflammatory lesions of left lung: Fibrosis lesion: scale not given here; details: for Expression of Type I collagen (%) / Expression of α-SMA protein (%): left lung immunohistochemistry; for Evaluation of injury and inflammatory lesions of left lung: Fibrosis lesion / Evaluation of injury and inflammatory lesions of left lung: Fibrotic lesion edge: HE score; for Fibrosis area (left pulmonary): Masson trichrome
Description: On the modeling day, rats were anesthetized and exposed to trachea. Bleomycin was injected into left trachea of each group (dosage: 3 mg/kg, volume: 1.0 ml/kg). Oral administration was performed on Day 8 after modeling, once a day. On Day 22, according to the KCI animal euthanasia SOP, animals in each group were given an overdose of sodium barbiturate and sacrificed under intraperitoneal anesthesia, the left lung was taken, the weight and volume of the left lung were measured, then fixed by formalin, the bronchioles were stained with HE, Masson trichrome. The bronchioles, final bronchiole and small pulmonary artery injury and inflammation invasion were evaluated by semi-quantitative score, and pulmonary fibrosis was evaluated by Ashcraft semi-quantitative score. Immunohistochemical staining of α-SMA, Type I collagen (Collagen-I) were performed at the same time, a full scan was performed by Hamamatsu NanoZoomer Digital Pathology (S210), the α-SMA positive area was semiquantitatively calculated from the unit area of the whole sheelt in pulmonary fibrosis foci, and the positive staining area of type-I collagent per unit of area was calculated.

[2] = system: lung fibrosis model in mice induced by bleomycin; assay: Therapeutic efficacy in lung fibrosis model in mice induced by bleomycin; format: in vivo, C57BL/6 mice; details: n = 10, Mean ± Sem
Description: Experimental Methods: 60 male C57BL/6 mice were randomize into 6 groups: Blank control group (Group 1, n=10), model group (Group 2, BLM, n=10), Compound A 10 mpk group (Group 3, n=10), compound A 20 mpk group (Group 4, n=10), Compound A 20 mpk +BIBF1120 50 mpk (Group 5, n=10), and BIBF1120 50 mpk positive reference group (Group 6, n=10). One week after the mice were acclimated to the environment, 10 mice in the blank control group were given 50 μl of normal saline in the trachea, and other 50 mice were given 50 μl BLM (0.66 mg/kg, 2 ml/kg) in the trachea. After BLM infusion, 50 mice in BLM infusion group were randomly assigned to start treatment on the 5th day, once a day, with a treatment cycle of 20 days. The whole process was 25 days. After the experiment, the lung tissues were fixed in 10% neutral formalin, dehydrated by alcohol gradient, embedded with paraffin, stained by hematoxylin-eosin (H&E) and Masson trichrome staining. And the inflammatory area and degree of fibrosis of the lung tissues in mice were evaluated by APERIO ScanScope. Immunohistochemical staining of lung tissue was performed to quantify α-SMA positive fibroblasts in lung tissue and to calculate the percentage (%) of α-SMA staining in the entire lung stroma.

[3] = system: unilateral pulmonary fibrosis model in SD rats; assay: Prophylactic therapeutic efficacy in unilateral pulmonary fibrosis model in SD rats (bleomycin); format: in vivo; set-up: key to Fibrosis score (Ashcraft): Ashcraft semi-quantitative fibrosis score; Evaluation of injury and inflammatory lesions of left lung: Fibrotic lesion edge / Evaluation of injury and inflammatory lesions of left lung: Fibrosis lesion: scale not given here
Description: 40 male SD rats were randomized into Model group (Group 1, n=8), positive drug group BIBF1120 60 mg/kg/d group (Group 2, n=8), Compound A 5 mg/kg/d group (Group 3, n=8), compound A 10 mg/kg/d group (Group 4, n=8) and Compound A 20 mg/kg/d (Group 5, n=8). On the modeling day, rats were anesthetized and exposed to trachea. Bleomycin was injected into trachea of each group (dosage: 3 mg/kg, volume: 1.0 ml/kg). Oral administration was performed 2 hours after modeling, once a day. On Day 15, all the animals were killed, the left lung was taken, the weight and volume of the left lung were measured, then fixed by formalin, the bronchioles were stained with HE, Masson trichrome. The bronchioles, final bronchiole and small pulmonary artery injury and inflammation invasion were evaluated by semi-quantitative score, and pulmonary fibrosis was evaluated by Ashcraft semi-quantitative score.

[4] = system: bleomycin-induced lung injury in a mouse model; details: Moshai et al., 2014; cited from earlier work
[5] = system: foodborne non-alcoholic fatty hepatitis (NASH) model in mice; details: Hirsova et al., Plos One 2013; cited from earlier work
[6] = 100 mpk oral D8 to D22, mean ± sem, n = 6
[7] = 100 mpk oral D8 to D22 after modeling, mean ± sem
[8] = 60 mg/kg/d oral from modeling day, D15, HE score, mean ± sem, n = 8
[9] = 60 mg/kg/d oral from modeling day, D15, mean ± sem, n = 8
[10] = 50 mpk oral D8 to D22, mean ± sem, n = 8
[11] = 50 mpk oral D8 to D22 after modeling, mean ± sem

COC(=O)c1ccc2c(c1)NC(=O)/C2=C(\Nc1ccc(N(C)C(=O)CN2CCN(C)CC2)cc1)c1ccccc1 [BIBF1120, Nintedanib ethylsulfonate, reference compound]
Expression of Type I collagen (%) [1, 6]: 18.99 ± 1.19%
Expression of α-SMA protein (%) [1, 6]: 7.36 ± 0.55%
Evaluation of injury and inflammatory lesions of left lung: Fibrosis lesion [1, 7]: 7.00 ± 0.36
Evaluation of injury and inflammatory lesions of left lung: Fibrotic lesion edge [1, 7]: 5.31 ± 0.28
Fibrosis area (left pulmonary) [1, 7]: 73.81 ± 1.14
Fibrosis Score 1-3 (%) [1, 7]: 88.33 ± 4.01%
Fibrosis Score 4-8 (%) [1, 7]: 11.67 ± 4.01%
Fibrosis score (Ashcraft) [1, 7]: 2.55 ± 0.18
Volume of left lung [1, 7]: 1.23 ± 0.09 cm^3
Weight of left lung [1, 7]: 1.31 ± 0.09 g
Inflammatory infiltration area ([2]; 50 mpk oral D5 to D25): 4.33 ± 1.39 mm^2
Total lung tissue area ([2]; 50 mpk oral D5 to D25): 87.02 ± 4.05 mm^2
Percentage of inflammatory area (%) ([2]; 50 mpk oral D5 to D25, ###p < 0.001 vs. BLM model group): 4.67 ± 1.32^### %
Percentage of positive α-SMA (%) ([2]; BIBF1120 50 mpk oral D5 to D25, lung tissue immunohistochemical staining): 0.96 ± 0.20%
Evaluation of injury and inflammatory lesions of left lung: Fibrosis lesion [3, 8]: 7.88 ± 0.48
Evaluation of injury and inflammatory lesions of left lung: Fibrotic lesion edge [3, 8]: 5.50 ± 0.25
Fibrosis area (left pulmonary fibrosis) ([3]; 60 mg/kg/d oral from modeling day, D15, Masson trichrome, mean ± sem, n = 8): 77.85 ± 10.90
Fibrosis Score 1-3 (%) [3, 9]: 75.00 ± 23.90%
Fibrosis Score 4-8 (%) [3, 9]: 25.00 ± 23.90%
Fibrosis score (Ashcraft) [3, 9]: 3.15 ± 0.65
Volume of left lung [3, 9]: 1.24 ± 0.17 cm^3
Weight of left lung [3, 9]: 1.18 ± 0.14 g
average score of fibrosis in the entire fibrosis lesion (ashcraft) ([3]; BIBF1120 60 mg/kg/d, compound A 5, 10, 20 mg/kg/d): about 3 points

CN(C)c1ccccc1CN1CCCN(Cc2ccccc2N(C)C)C1c1ccncc1 [GANT61]
efficacy on pulmonary fibrosis [4]: good therapeutic effect

CS(=O)(=O)c1ccc(C(=O)Nc2ccc(Cl)c(-c3ccccn3)c2)c(Cl)c1 [GDC0449, vismodegib, reference compound]
efficacy on pulmonary fibrosis [4]: no efficacy
damage and inflammatory response of terminal bronchioles within fibrosis lesions and pulmonary small artery compared with model group ([1]; 14 consecutive days, BIBF1120 100, Compound A 5, 15, 30, GDC0449 50 mg/kg/d, p<0.001): significantly reduced
Expression of Type I collagen (%) [1, 10]: 19.06 ± 0.70%
Expression of α-SMA protein (%) [1, 10]: 7.74 ± 0.59%
Evaluation of injury and inflammatory lesions of left lung: Fibrosis lesion [1, 11]: 6.38 ± 0.17
Evaluation of injury and inflammatory lesions of left lung: Fibrotic lesion edge [1, 11]: 4.80 ± 0.22
Fibrosis area (left pulmonary) [1, 11]: 67.96 ± 3.70
Fibrosis Score 1-3 (%) [1, 11]: 95.00 ± 2.67%
Fibrosis Score 4-8 (%) [1, 11]: 5.00 ± 2.67%
Fibrosis score (Ashcraft) [1, 11]: 2.16 ± 0.11
Weight of left lung [1, 11]: 1.29 ± 0.09 g
degree of pulmonary fibrosis (Ashcraft score) compared with model group ([1]; BIBF1120 100, Compound A 5, 15, 30, GDC0449 50 mg/kg/d, p<0.01): significantly better
amount of Type I collagen deposition in the fibrotic lesions compared with model group ([1]; BIBF1120 100 mpk, Compound A 5 mpk, GDC0449 50 mpk): no significant difference
positive rate of α-SMA in fibrosis lesions per unit area compared with model group ([1]; BIBF1120 100 mpk, GDC0449 50 mpk): no significant difference
treatment effect on fibrosis compared with BIBF1120 100 mg/kg/d ([1]; compound A 5, 15 and 30 mg/kg, GDC0449 50 mg/kg/d, 14 consecutive days): the same as that of BIBF1120
effect on liver injury, hepatic inflammation and fibrosis [5]: attenuating hepatic inflammation and fibrosis
